Assay results: PubChem BioAssay AID256 (DTP/NCI, 2004)
Where “and” joins values, the source holds several entries; their conditions need not be identical. Equal values may be shown once. Inconclusive results and toxic doses are left out. The calls were made as follows: active = survival T/C of 150% or more; inactive = T/C below 125% in these data.

System: CD2F1 mice, L1210 leukemia ip, survival T/C
Test: NCI In Vivo Anticancer Drug Screen. Data for tumor model L1210 Leukemia (intraperitoneal) in CD2F1 (CDF1) mice
Settings: higher = longer survival
In short: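 Each value reflects a quotient of treated over vehicle control outcomes in mice with a transplanted tumor.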

[1] = endpoint: mean survival time, dose: 100.0 mg/kg/injection, schedule: Q04DX003 (ip), vehicle: saline with Tween-80
[2] = endpoint: mean survival time, dose: 200.0 mg/kg/injection, schedule: Q04DX003 (ip), vehicle: saline with Tween-80
[3] = endpoint: mean survival time, dose: 400.0 mg/kg/injection, schedule: Q04DX003 (ip), vehicle: saline with Tween-80
[4] = endpoint: mean survival time, dose: 100.0 mg/kg/injection, schedule: Q01DX001 (ip), vehicle: saline with Tween-80
[5] = endpoint: mean survival time, dose: 200.0 mg/kg/injection, schedule: Q01DX001 (ip), vehicle: saline with Tween-80
[6] = endpoint: mean survival time, dose: 400.0 mg/kg/injection, schedule: Q01DX001 (ip), vehicle: saline with Tween-80
[7] = endpoint: mean survival time, dose: 100.0 mg/kg/injection, schedule: Q04DX002 (ip), vehicle: saline with Tween-80
[8] = endpoint: mean survival time, dose: 100.0 mg/kg/injection, schedule: Q01DX009 (ip), vehicle: saline with Tween-80
[9] = endpoint: mean survival time, dose: 200.0 mg/kg/injection, schedule: Q01DX009 (ip), vehicle: saline with Tween-80

Measured: T/C

Cc1ccc(Cl)cc1S
inactive: endpoint: mean survival time, dose: 75.0 mg/kg/injection, schedule: Q01DX001 (ip), vehicle: saline 98 % of control | endpoint: mean survival time, dose: 150.0 mg/kg/injection, schedule: Q01DX001 (ip), vehicle: saline 102 % of control | endpoint: mean survival time, dose: 300.0 mg/kg/injection, schedule: Q01DX001 (ip), vehicle: saline 103 % of control

COc1ccc(-n2c(=O)c(N=Nc3ccccc3)c(O)n(-c3ccc(C)cc3)c2=S)cc1
inactive: endpoint: mean survival time, dose: 100.0 mg/kg/injection, schedule: Q01DX001 (ip), vehicle: acetone 96 % of control | endpoint: mean survival time, dose: 200.0 mg/kg/injection, schedule: Q01DX001 (ip), vehicle: acetone 94 % of control | endpoint: mean survival time, dose: 400.0 mg/kg/injection, schedule: Q01DX001 (ip), vehicle: acetone 96 % of control

Nc1ccn(C2OC(C(OC3OC(CO)C(O)C(N)C3O)C(O)C(O)C(O)C(O)CO)C(N)C(O)C2O)c(=O)n1 (configuration not stated)
inactive: endpoint: mean survival time, dose: 0.1 mg/kg/injection, schedule: Q01DX005 (ip), vehicle: saline 104 % of control | endpoint: mean survival time, dose: 0.2 mg/kg/injection, schedule: Q01DX005 (ip), vehicle: saline 102 % of control | endpoint: mean survival time, dose: 0.4 mg/kg/injection, schedule: Q01DX005 (ip), vehicle: saline 101 % of control

CN(Cc1cnc2nc(N)nc(N)c2n1)c1ccc(C(=O)N[C@@H](CCC(=O)O)C(N)=O)cc1
inactive: endpoint: mean survival time, dose: 3.0 mg/kg/injection, schedule: Q01DX009 (ip), vehicle: sodium bicarbonate 98 % of control | endpoint: mean survival time, dose: 6.0 mg/kg/injection, schedule: Q01DX009 (ip), vehicle: sodium bicarbonate 100 % of control | endpoint: mean survival time, dose: 12.0 mg/kg/injection, schedule: Q01DX009 (ip), vehicle: sodium bicarbonate 111 % of control | endpoint: mean survival time, dose: 50.0 mg/kg/injection, schedule: Q01DX009 (ip), vehicle: sodium bicarbonate 114 % of control

CNCCC(=N)C(=N)CCNC
inactive: endpoint: mean survival time, dose: 100.0 mg/kg/injection, schedule: Q04DX002 (ip), vehicle: saline 111 % of control | endpoint: mean survival time, dose: 200.0 mg/kg/injection, schedule: Q04DX002 (ip), vehicle: saline 106 % of control | endpoint: mean survival time, dose: 400.0 mg/kg/injection, schedule: Q04DX002 (ip), vehicle: saline 103 % of control

C=C(Cl)CSCC
inactive: endpoint: mean survival time, dose: 25.0 mg/kg/injection, schedule: Q01DX009 (ip), vehicle: acetone 114 % of control | endpoint: mean survival time, dose: 50.0 mg/kg/injection, schedule: Q01DX009 (ip), vehicle: acetone 120 % of control

CCCCCCCCCCCCCCCCOc1ccc(S(=O)(=O)NC(C)(C)C)cc1[N+](=O)[O-]
inactive: [1] 105 % of control | [2] 96 % of control | [3] 94 % of control

Cn1sc2ccccc2c1=S
inactive: [1] 101 % of control | [2] 96 % of control | [3] 95 % of control

COc1cc2c3c(c1)/C(=N\NC(N)=S)CCN3CCC2
inactive: [4] 93 % of control | [5] 105 % of control | [6] 93 % of control

CSc1ncc(Br)c(Sc2nc(N)nc3nc[nH]c23)n1
inactive: endpoint: mean survival time, dose: 2.2 mg/kg/injection, schedule: Q01DX001 (ip), vehicle: saline with Tween-80 123 % of control | endpoint: mean survival time, dose: 3.0 mg/kg/injection, schedule: Q01DX001 (ip), vehicle: saline with Tween-80 117 % of control | endpoint: mean survival time, dose: 3.4 mg/kg/injection, schedule: Q01DX001 (ip), vehicle: saline with Tween-80 123 % of control | endpoint: mean survival time, dose: 4.4 mg/kg/injection, schedule: Q01DX001 (ip), vehicle: saline with Tween-80 122 % of control

CC(O)CN1CC(C)OC(C)C1 (configuration not stated)
inactive: endpoint: mean survival time, dose: 100.0 mg/kg/injection, schedule: Q01DX009 (ip), vehicle: saline 100 % of control | endpoint: mean survival time, dose: 100.0 mg/kg/injection, schedule: Q04DX003 (ip), vehicle: saline 103 % of control | endpoint: mean survival time, dose: 200.0 mg/kg/injection, schedule: Q01DX009 (ip), vehicle: saline 100 % of control | endpoint: mean survival time, dose: 200.0 mg/kg/injection, schedule: Q04DX003 (ip), vehicle: saline 103 % of control | endpoint: mean survival time, dose: 400.0 mg/kg/injection, schedule: Q01DX009 (ip), vehicle: saline 100 % of control | endpoint: mean survival time, dose: 400.0 mg/kg/injection, schedule: Q04DX003 (ip), vehicle: saline 101 % of control

CCCCCCCCCCCCCCCCOC(=O)c1cc([N+](=O)[O-])cc([N+](=O)[O-])c1Sc1ncnc2nc[nH]c12
inactive: endpoint: mean survival time, dose: 0.63 mg/kg/injection, schedule: Q01DX005 (ip), vehicle: other 105 % of control | endpoint: mean survival time, dose: 1.25 mg/kg/injection, schedule: Q01DX005 (ip), vehicle: other 108 % of control | endpoint: mean survival time, dose: 2.5 mg/kg/injection, schedule: Q01DX005 (ip), vehicle: other 113 % of control | endpoint: mean survival time, dose: 5.0 mg/kg/injection, schedule: Q01DX005 (ip), vehicle: other 113 % of control | endpoint: mean survival time, dose: 10.0 mg/kg/injection, schedule: Q01DX005 (ip), vehicle: other 120 % of control | endpoint: mean survival time, dose: 12.5 mg/kg/injection, schedule: Q01DX005 (ip), vehicle: other 109 % of control | endpoint: mean survival time, dose: 15.7 mg/kg/injection, schedule: Q01DX005 (ip), vehicle: other 106 % of control | endpoint: mean survival time, dose: 25.0 mg/kg/injection, schedule: Q01DX005 (ip), vehicle: other 117 % of control and 112 % of control | endpoint: mean survival time, dose: 31.3 mg/kg/injection, schedule: Q01DX005 (ip), vehicle: other 124 % of control | endpoint: mean survival time, dose: 50.0 mg/kg/injection, schedule: Q01DX005 (ip), vehicle: other 115 % of control and 122 % of control | endpoint: mean survival time, dose: 100.0 mg/kg/injection, schedule: Q01DX005 (ip), vehicle: other 116 % of control | endpoint: mean survival time, dose: 400.0 mg/kg/injection, schedule: Q01DX005 (ip), vehicle: other 118 % of control

CC(C)CC(C)(C)COP(=S)(OCC(C)(C)CC(C)C)OCC(C)(C)CC(C)C
inactive: [7] 91 % of control | endpoint: mean survival time, dose: 200.0 mg/kg/injection, schedule: Q04DX002 (ip), vehicle: saline with Tween-80 91 % of control | endpoint: mean survival time, dose: 400.0 mg/kg/injection, schedule: Q04DX002 (ip), vehicle: saline with Tween-80 102 % of control

CCO/C=C/C(=O)NC(=O)NC1CC(CO)CC1O (configuration not stated)
inactive: endpoint: mean survival time, dose: 50.0 mg/kg/injection, schedule: Q01DX009 (ip), vehicle: saline with Tween-80 97 % of control | [8] 97 % of control | [9] 105 % of control

CC(C)(CC(=O)O)Cc1ccc([N+](=O)[O-])cc1
inactive: [1] 102 % of control | [2] 98 % of control | [3] 102 % of control

O.O.[Cl][Pt+2][Cl].[NH-]C1CCCCC1[NH-] (configuration not stated)
inactive: endpoint: mean survival time, dose: 2.5 mg/kg/injection, schedule: Q04DX003 (ip), vehicle: dextrose 110 % of control | endpoint: mean survival time, dose: 5.0 mg/kg/injection, schedule: Q04DX003 (ip), vehicle: dextrose 113 % of control | endpoint: mean survival time, dose: 80.0 mg/kg/injection, schedule: Q04DX003 (ip), vehicle: dextrose 96 % of control | endpoint: median survival time, dose: 1.25 mg/kg/injection, schedule: Q04DX003 (ip), vehicle: saline 109 % of control | endpoint: median survival time, dose: 2.5 mg/kg/injection, schedule: Q04DX003 (ip), vehicle: saline 110 % of control | endpoint: median survival time, dose: 4.0 mg/kg/injection, schedule: Q04DX003 (ip), vehicle: saline 110 % of control [middle of 5 runs] | endpoint: median survival time, dose: 5.0 mg/kg/injection, schedule: Q04DX003 (ip), vehicle: saline 119 % of control | endpoint: median survival time, dose: 8.0 mg/kg/injection, schedule: Q04DX003 (ip), vehicle: saline 120 % of control | endpoint: median survival time, dose: 64.0 mg/kg/injection, schedule: Q04DX003 (ip), vehicle: saline 98 % of control and 120 % of control and 124 % of control

CC(=O)Nc1c(N)nc(Nc2nc3ccccc3[nH]2)[nH]c1=O
inactive: [8] 93 % of control | [1] 97 % of control | [9] 95 % of control | [2] 96 % of control | endpoint: mean survival time, dose: 400.0 mg/kg/injection, schedule: Q01DX009 (ip), vehicle: saline with Tween-80 93 % of control | [3] 87 % of control

O.O.[Co].[Co].[NH-]CC[NH-].[NH-]CC[NH-].[NH-]CC[NH-].[NH-]CC[NH-]
inactive: endpoint: mean survival time, dose: 25.0 mg/kg/injection, schedule: Q04DX002 (ip), vehicle: saline 98 % of control | endpoint: mean survival time, dose: 50.0 mg/kg/injection, schedule: Q04DX002 (ip), vehicle: saline 106 % of control

Cc1ccc(S(=O)(=O)OCC2OCOC(C(O)CI)C2O)cc1 (configuration not stated)
inactive: [4] 92 % of control | [5] 92 % of control | [6] 102 % of control

Clc1ccccc1-c1nc2ccccc2s1
inactive: [4] 91 % of control | [1] 97 % of control | [5] 91 % of control | [2] 96 % of control | [6] 91 % of control | [3] 92 % of control

C[PH+](CC[PH+](c1ccccc1)c1ccccc1)c1ccccc1.[C-]#[O+].[C-]#[O+].[C-]#[O+].[C-]#[O+].[Mo] (configuration not stated)
inactive: endpoint: mean survival time, dose: 25.0 mg/kg/injection, schedule: Q04DX002 (ip), vehicle: saline with Tween-80 93 % of control | endpoint: mean survival time, dose: 50.0 mg/kg/injection, schedule: Q04DX002 (ip), vehicle: saline with Tween-80 89 % of control | [7] 89 % of control
